How the values were obtained:
[1] = Determination of pharmacokinetic parameters following intravenous and oral administration (rats); format: in vivo, male Wistar rats; conditions: following intravenous and peroral administration; for MRT / half-life: male, Wistar, rat, plasma; for MRT: read-out: MRT (Mean Residence Time); for half-life: read-out: t½ (terminal half life) (converted)
Method: B-6. Determination of Pharmacokinetic Parameters Following Intravenous and Oral Administration
The pharmacokinetic parameters of the compounds according to the invention are determined in male CD-1 mice, male Wistar rats and female beagles. Intravenous administration in the case of mice and rats is carried out by means of a species-specific plasma/DMSO formulation, and in the case of dogs by means of a water/PEG400/ethanol formulation. In all species, oral administration of the dissolved substance is performed via gavage, based on a water/PEG400/ethanol formulation.
The taking of blood from rats is simplified by inserting a silicone catheter into the right Vena jugularis externa prior to substance administration. The operation is carried out at least one day prior to the experiment with […] and administration of an analgesic (atropin/Rimadyl (3/1) 0.1 ml s.c.). The blood is taken (generally more than 10 time points) within a time window including terminal time points of at least 24 to a maximum of 72 hours after substance administration. When the blood is taken, it is passed into heparinised tubes. Then the blood plasma is obtained by centrifugation and is optionally stored at −20° C. until further processing.
An internal standard (which may also be a chemically unrelated substance) is added to the samples of the compounds according to the invention, calibration samples and qualifiers, and there follows protein precipitation by means of excess acetonitrile. Addition of a buffer solution matched to the LC conditions, and subsequent vortexing, is followed by centrifugation at 1000 g. The supernatant is analysed by LC-MS/MS using C18 reversed-phase columns and variable mobile phase mixtures.
The substances are quantified via the peak heights or areas from extracted ion chromatograms of specific selected ion monitoring experiments.
The plasma concentration/time plots determined are used to calculate the pharmacokinetic parameters such as AUC, Cmax, t1/2 (terminal half life), F (Bioavailability), MRT (Mean Residence Time) and CL (Clearance), using a validated pharmacokinetic calculation programme.
Since the substance quantification is carried out in plasma, it is necessary to determine the blood/plasma distribution of the substance in order to be able to adjust the pharmacokinetic parameters correspondingly. For this purpose, a defined amount of substance is incubated in heparinised whole blood of the species in question in a rocking roller mixer for 20 min. After centrifugation at 1000 g, the plasma concentration is measured (by means of LC-MS/MS; see above) and determined by calculating the ratio of the Cblood/Cplasma value.

[2] = biological target: T1, recombinant guanylate cyclase reporter cell line (Rattus norvegicus, UniProt P19686+P20595); test: Action on recombinant guanylate cyclase reporter cell line; format: cell-based; conditions: in some cases mean values obtained from individual determinations
T1 construct: expressed in transfected cells
T1 sequence (P20595 1-619): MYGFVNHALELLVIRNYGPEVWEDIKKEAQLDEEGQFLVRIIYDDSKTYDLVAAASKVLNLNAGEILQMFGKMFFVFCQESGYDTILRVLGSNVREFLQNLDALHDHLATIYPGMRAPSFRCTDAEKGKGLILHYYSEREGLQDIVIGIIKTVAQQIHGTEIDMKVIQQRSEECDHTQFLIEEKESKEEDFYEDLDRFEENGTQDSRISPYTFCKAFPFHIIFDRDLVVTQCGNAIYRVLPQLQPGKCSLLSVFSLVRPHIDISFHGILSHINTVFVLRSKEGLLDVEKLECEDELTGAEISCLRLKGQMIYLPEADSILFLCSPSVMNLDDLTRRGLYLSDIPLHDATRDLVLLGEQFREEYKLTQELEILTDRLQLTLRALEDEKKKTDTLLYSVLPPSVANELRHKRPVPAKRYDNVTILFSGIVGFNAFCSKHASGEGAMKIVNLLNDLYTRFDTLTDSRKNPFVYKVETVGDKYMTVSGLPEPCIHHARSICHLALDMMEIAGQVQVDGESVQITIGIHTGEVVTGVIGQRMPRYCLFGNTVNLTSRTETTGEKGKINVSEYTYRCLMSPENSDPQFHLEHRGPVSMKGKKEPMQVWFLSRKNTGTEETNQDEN
T1 sequence (P19686 1-690): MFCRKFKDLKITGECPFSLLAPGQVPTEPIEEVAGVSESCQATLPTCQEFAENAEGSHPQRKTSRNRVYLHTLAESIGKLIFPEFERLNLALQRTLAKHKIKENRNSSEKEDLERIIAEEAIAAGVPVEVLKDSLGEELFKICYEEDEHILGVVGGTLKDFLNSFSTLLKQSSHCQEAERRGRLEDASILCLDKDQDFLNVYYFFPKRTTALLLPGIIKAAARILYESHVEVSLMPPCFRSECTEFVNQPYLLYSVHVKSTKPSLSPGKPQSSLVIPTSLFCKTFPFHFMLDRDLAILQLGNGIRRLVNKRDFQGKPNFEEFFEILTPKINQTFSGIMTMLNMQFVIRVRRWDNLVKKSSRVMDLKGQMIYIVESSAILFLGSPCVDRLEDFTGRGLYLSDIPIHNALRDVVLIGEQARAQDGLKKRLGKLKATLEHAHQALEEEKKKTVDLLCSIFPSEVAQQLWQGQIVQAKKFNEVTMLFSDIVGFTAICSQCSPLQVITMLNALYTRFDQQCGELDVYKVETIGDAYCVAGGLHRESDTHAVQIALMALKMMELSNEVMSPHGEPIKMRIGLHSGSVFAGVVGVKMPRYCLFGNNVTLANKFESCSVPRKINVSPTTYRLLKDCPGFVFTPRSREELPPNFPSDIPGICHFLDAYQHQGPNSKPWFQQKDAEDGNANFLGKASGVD
Summary of the method: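 Cell-based reporter assay with recombinant guanylate cyclase expressed in a reporter cell line, per a published method. Activity reported as minimal effective concentration (MEC), in some cases as the mean of individual determinations.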

AUCnorm [1] [kg·h/L]	CLblood [1] [L/h/kg]	MRT [1] [h]	half-life [1] [min]	MEC (minimal effective concentration) [2] [µM]	Compound
2.5	0.56	3.3	204	0.3	Cc1cc(OCc2ncccc2F)c2nc(C)c(C(=O)NC(CCCC(F)(F)F)C(C)(C)O)n2c1 (single isomer, unassigned; ent-8) [Example 181, ent-8-[(3-fluoropyridin-2-yl)methoxy]-2,6-dimethyl-N-(7,7,7-trifluoro-2-hydroxy-2-methylheptan-3-yl)imidazo[1,2-a]pyridine-3-carboxamide (enantiomer B)]
2.0	0.71	4	276	1	Cc1cc(OCc2ncccc2F)c2nc(C)c(C(=O)NC(CCC(F)(F)C(F)(F)F)C(C)(C)O)n2c1 (single isomer, unassigned; ent-8) [Example 187, ent-8-[(3-fluoropyridin-2-yl)methoxy]-2,6-dimethyl-N-(6,6,7,7,7-pentafluor-2-hydroxy-2-methylheptan-3-yl)imidazo[1,2-a]pyridine-3-carboxamide (enantiomer B)]

Reference: patent publication US8946215B2, “Hydroxy-substituted imidazo[1,2-a]pyridinecarboxamides and their use” (Bayer Pharma Aktiengesellschaft, priority 2012, dated 2015)
